The test system of one test is WM3928 cells. Nature of the test: WM3928 Cell Proliferation Assay (1). The test is classed as cell-based. The procedure: WM3928 Cell Proliferation Assay (1)
WM3928 cells (#WM3928-01-0001) are obtained from Rockland Immunochemicals Inc (Gilbertsville, PA). Briefly, cells were grown in MCDB 153 medium (Sigma, #M7403, St. Louis, MO) supplemented with 20% Leibovitz's L-15 (ThermoFisher #11415-064, Waltham, MA), 2% heat inactivated fetal bovine serum (ThermoFisher, #A3840001, Waltham, MA), 5 μg/mL Insulin (Bovine Pancreas) (Sigma, #I0516, St. Louis, MO), 1.68 mM Calcium Chloride (Sigma, #C-34006, St. Louis, MO) and 1% Penicillin/Streptomycin/L-Glutamine (ThermoFisher #10378016, Waltham, MA) at 37° C., 5% CO2, and 95% humidity. Cells are expanded until reaching 70-95% confluency at which point they are subcultured or harvested for assay use. A serial dilution of test compound is dispensed into a 96-well black clear bottom plate in triplicate. Three thousand cells are added per well in 200 μL complete growth medium in the 96-well plate. Plates are incubated for 67-72 hours at 37° C., 5% CO2, and 95% humidity. At the end of the incubation, 40 μL of a 440 μM solution of resazurin (Sigma, #199303, St. Louis, MO) in PBS is added to each well of the plate and plates are incubated for an additional 6-7 hours at 37° C., 5% CO2, and 95% humidity. Plates are read on a Synergy2 or equivalent reader (Biotek, Winooski VT) using an excitation of 540 nm and an emission of 600 nm. Data is analyzed using Prism software (GraphPad, San Diego, CA) to calculate IC50 values.

The target in test [1] is B-Raf kinase (SEQ. ID NO: 2) (Homo sapiens (Human), UniProt P15056). Nature of the test: Biochemical Assay for B-Raf (1). To be noted: Table J, assay version (1); read-out: BRAF (1) IC50. The essentials:
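Continuous PK/LDH-coupled NADH oxidation assay, A340 read for 6 h at 30° C., with 0.13 nM B-Raf, 30.1 nM MEK substrate and 1 mM ATP in Tris pH 7.5, MgCl2, DTT, detergents, 1% DMSO. Rate taken from 4–5 h window; percent inhibition vs no-compound and known-inhibitor controls; four-parameter fit gives IC50.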

Test [2] has as its target A-Raf kinase (SEQ. ID No: 1) (Homo sapiens (Human), UniProt P10398, Y301D/Y302D). Nature of the test: Biochemical Assay for A-Raf (1). The following applies: Table J, assay version (1); read-out: ARAF (1) IC50. The essentials:
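A-Raf Y301D/Y302D at 5.55 nM phosphorylates 30.1 nM MEK with 1 mM ATP in pH 7.5 Tris buffer, 1% DMSO. Activity was read continuously as NADH oxidation at 340 nm in a pyruvate kinase/lactate dehydrogenase coupled system for 6 h at 30 °C. Rates from 4–5 h were converted to percent inhibition, and IC50 came from a four-parameter fit.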

A further test concerns A375 cells. Nature of the test: A375 Cell Proliferation Assay (1). It counts as cell-based. The following applies: Homo sapiens, A-375. The essentials:
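Resazurin fluorescence (excitation 540 nm, emission 600 nm, after a further 5-6 h) gave IC50s from triplicate compound dilution series.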

A-Raf kinase (SEQ. ID No: 1), sequence (P10398 other isoform, or with tags, fused parts or gaps Y301D (already in the parent)/Y302D (already in the parent)): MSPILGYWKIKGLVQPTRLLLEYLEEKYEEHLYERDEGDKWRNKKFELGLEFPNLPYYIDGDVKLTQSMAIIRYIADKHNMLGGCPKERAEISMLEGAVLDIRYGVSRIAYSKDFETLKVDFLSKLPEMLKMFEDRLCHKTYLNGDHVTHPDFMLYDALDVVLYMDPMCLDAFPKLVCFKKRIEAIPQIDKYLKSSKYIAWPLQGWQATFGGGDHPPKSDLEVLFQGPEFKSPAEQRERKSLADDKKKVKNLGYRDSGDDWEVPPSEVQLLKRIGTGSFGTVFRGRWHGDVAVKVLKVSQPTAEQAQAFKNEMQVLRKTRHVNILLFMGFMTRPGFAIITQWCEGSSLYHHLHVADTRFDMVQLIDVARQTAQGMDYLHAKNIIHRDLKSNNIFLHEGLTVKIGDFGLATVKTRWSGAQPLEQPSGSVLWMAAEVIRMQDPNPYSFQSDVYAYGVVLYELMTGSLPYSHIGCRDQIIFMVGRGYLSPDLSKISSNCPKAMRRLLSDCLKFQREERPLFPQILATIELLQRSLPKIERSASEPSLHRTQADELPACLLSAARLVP
B-Raf kinase (SEQ. ID NO: 2), sequence (P15056 416-766): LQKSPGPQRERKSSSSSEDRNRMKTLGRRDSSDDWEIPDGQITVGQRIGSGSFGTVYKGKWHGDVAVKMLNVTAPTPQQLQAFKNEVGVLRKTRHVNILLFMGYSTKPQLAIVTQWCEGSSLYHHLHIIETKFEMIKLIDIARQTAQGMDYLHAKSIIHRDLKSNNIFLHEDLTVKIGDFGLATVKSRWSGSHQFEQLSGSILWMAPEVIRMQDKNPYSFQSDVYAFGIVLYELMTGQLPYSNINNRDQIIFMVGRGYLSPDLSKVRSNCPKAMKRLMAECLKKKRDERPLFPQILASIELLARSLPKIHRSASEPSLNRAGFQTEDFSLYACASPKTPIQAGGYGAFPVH

As usually defined, the IC50 is the concentration that gives 50% inhibition. Take `CC(=O)Nc1cc(-c2nccc(-c3cc(NC(=O)c4ccnc(C5(C#N)CC5)c4)ccc3C)n2)ccn1` [Example 151]: the IC50 is no more than 100 nM with WM3928 cells, no more than 100 nM in test [1], 100 to 500 nM in test [2] and no more than 100 nM with A375 cells.

With `Cc1ncc(NC(=O)c2ccnc(C(C)(C)C#N)c2)cc1-c1cccc(-c2ccnc3c2CC(=O)N3)c1` [Example 105], the IC50 with WM3928 cells is 100 to 500 nM; in test [1], 100 to 500 nM; in test [2], 1000 to 10000 nM; in the test with A375 cells it was 1000 to 10000 nM.

Consider `Cc1ccc(NC(=O)c2ccnc(C(F)(F)F)c2)cc1-c1ccnc(-c2ccnc(N)c2)n1` [Example 122], for which the IC50 in the test with WM3928 cells is 1000 to 10000 nM; in test [1], no more than 100 nM; in test [2], 1000 to 10000 nM; with A375 cells, 1000 to 10000 nM.

For `CNC(=O)c1cc(-c2ccnc(-c3cc(NC(=O)c4ccnc(C(C)(C)C#N)c4)ccc3C)n2)ccn1` [Example 177], the IC50 with WM3928 cells is no more than 100 nM; in test [1], 100 to 500 nM; in test [2], 1000 to 10000 nM; with A375 cells, 100 to 500 nM.

Turning to `Cc1ncc(NC(=O)c2ccnc(C(C)(C)C#N)c2)cc1-c1cccc(-c2ccnc(NC(=O)C3CC3)c2)n1` [Example 172], the IC50 in the test with WM3928 cells is no more than 100 nM; in test [1] it was no more than 100 nM; in test [2], 1000 to 10000 nM; in the test with A375 cells, no more than 100 nM.

As for `Cc1ccc(NC(=O)c2ccnc(C(C)(C)C#N)c2)cc1-c1ccnc(-c2ccnc3c2CC(=O)N3)n1` [Example 101], the IC50 was 100 to 500 nM in the test on WM3928 cells, no more than 100 nM in test [1], 1000 to 10000 nM in test [2] and 500 to 1000 nM in the test on A375 cells.

Regarding `CC(=O)Nc1cc(-c2cncc(-c3cc(NC(=O)c4cccc(C(C)(C)C#N)c4)ccc3C)n2)ccn1` [Example 125], the IC50 with WM3928 cells was no more than 100 nM; in test [1], no more than 100 nM; in test [2] it was 1000 to 10000 nM; with A375 cells, no more than 100 nM.

Turning to `CC(=O)Nc1cc(-c2cc(-c3cc(NC(=O)c4ccnc(C(F)(F)F)c4)ccc3C)cc(C)n2)ccn1` [Example 5], the IC50 in the test on WM3928 cells is no more than 100 nM; in test [1] it was no more than 100 nM; in test [2], 1000 to 10000 nM; in the test with A375 cells, 100 to 500 nM.

`Cc1ccc(NC(=O)c2ccnc(C(C)(C)C#N)c2)cc1-c1ccnc(-c2ccnc(C(=O)NC3CC3)c2)c1` [Example 162]: the IC50 with WM3928 cells was 100 to 500 nM; in test [1], 100 to 500 nM; in test [2], 1000 to 10000 nM; in the test on A375 cells, 100 to 500 nM.

As to `CC(=O)Nc1cc(-c2cc(-c3cc(NC(=O)c4ccnc(C(C)(C)C#N)c4)ccc3C)cn(C)c2=O)ccn1` [Example 113], the IC50 in the test with WM3928 cells lay in the range of 100 to 500 nM; in test [1], 100 to 500 nM; in test [2], 1000 to 10000 nM; with A375 cells, 100 to 500 nM.

As to `CNC(=O)c1cc(-c2cccc(-c3cc(NC(=O)c4ccnc(C(C)(C)C#N)c4)ccc3C)c2)ncn1` [Example 171], the IC50 in the test with WM3928 cells is no more than 100 nM; in test [1], no more than 100 nM; in test [2] it was 1000 to 10000 nM; with A375 cells, no more than 100 nM.

Regarding `CC(=O)Nc1cc(-c2nccc(-c3cc(NC(=O)c4cccc(C(C)(C)C#N)c4)ccc3C)n2)ccn1` [Example 150], the IC50 in the test on WM3928 cells was no more than 100 nM; in test [1], no more than 100 nM; in test [2], 100 to 500 nM; with A375 cells, no more than 100 nM.

As for `Cc1ncc(NC(=O)c2ccnc(C(C)(C)C#N)c2)cc1-c1cccc(-c2ccnc3[nH]cnc23)c1` [Example 111], the IC50 fell in the range of 1000 to 10000 nM in the test with WM3928 cells, 500 to 1000 nM in test [1], 1000 to 10000 nM in test [2] and 1000 to 10000 nM in the test with A375 cells.

Consider `Cc1ncc(NC(=O)c2cccc(C(F)(F)F)c2)cc1-c1cccc(-c2ccnc(NC(=O)CC#N)c2)c1` [Example 97], for which the IC50 in the test on WM3928 cells was no more than 100 nM; in test [1], no more than 100 nM; in test [2] it was 500 to 1000 nM; in the test with A375 cells, 100 to 500 nM.

Regarding `CC(=O)Nc1cc(-c2cc(-c3cc(NC(=O)c4ccnc(C(F)(F)F)c4)c(F)cc3C)cc(OC(C)C)n2)ccn1` [Example 10], the IC50 was no more than 100 nM with WM3928 cells, 100 to 500 nM in test [1], 1000 to 10000 nM in test [2] and no more than 100 nM in the test with A375 cells.

With `CC(=O)Nc1cc(-c2nccc(-c3cc(NC(=O)c4ccnc(C5CC5)c4)ccc3C)n2)ccn1` [Example 152], the half-inhibitory concentration (IC50) with WM3928 cells is no more than 100 nM; in test [1], no more than 100 nM; in test [2] it was 500 to 1000 nM; in the test on A375 cells it was 100 to 500 nM.

Turning to `Cc1ccc(NC(=O)c2ccnc(C(C)(C)C#N)c2)cc1-c1cccc(-c2ncnc3c2CC(=O)N3)c1` [Example 109], the IC50 with WM3928 cells is no more than 100 nM; in test [1], no more than 100 nM; in test [2] it was 1000 to 10000 nM; in the test with A375 cells it was 100 to 500 nM.

`CC(=O)Nc1cc(-c2cncc(-c3cc(NC(=O)c4ccnc(C5(C#N)CC5)c4)ccc3C)n2)ccn1` [Example 146]: the IC50 in the test on WM3928 cells is no more than 100 nM; in test [1], no more than 100 nM; in test [2], 500 to 1000 nM; in the test on A375 cells, no more than 100 nM.

With `Cc1ncc(NC(=O)c2ccnc(C3CC3)c2)cc1-c1cccc(-c2ncnc3[nH]ncc23)c1` [Example 131], the IC50 is 1000 to 10000 nM in the test with WM3928 cells, no more than 100 nM in test [1], 1000 to 10000 nM in test [2] and 1000 to 10000 nM in the test with A375 cells.

In the case of `CCC(=O)Nc1cc(-c2cccc(-c3cc(NC(=O)c4ccnc(C(C)(C)C#N)c4)cnc3C)n2)ccn1` [Example 182], the IC50 is no more than 100 nM in the test with WM3928 cells, 100 to 500 nM in test [1], 1000 to 10000 nM in test [2] and 100 to 500 nM in the test on A375 cells.

`CC(=O)Nc1cc(-c2nccc(-c3cc(NC(=O)c4ccnc(C(F)(F)F)c4)cnc3C)n2)ccn1` [Example 157]: the half-inhibitory concentration (IC50) in the test with WM3928 cells is 100 to 500 nM; in test [1] it was no more than 100 nM; in test [2], 1000 to 10000 nM; with A375 cells, 1000 to 10000 nM.

As to `CC(=O)Nc1cc(-c2ccnc(-c3cc(NC(=O)c4ccnc(C(C)(C)C#N)c4)ccc3C)n2)ccn1` [Example 103], the IC50 in the test on WM3928 cells is no more than 100 nM; in test [1], no more than 100 nM; in test [2], 500 to 1000 nM; with A375 cells, no more than 100 nM.

With `CNC(=O)c1cc(-c2nccc(-c3cc(NC(=O)c4ccnc(C5(C#N)CC5)c4)ccc3C)n2)ccn1` [Example 175], the concentration for half-maximal inhibition (IC50) was no more than 100 nM with WM3928 cells, no more than 100 nM in test [1], 1000 to 10000 nM in test [2] and 100 to 500 nM with A375 cells.

Take `Cc1ccc(NC(=O)c2ccnc(C(C)(C)C#N)c2)cc1-c1cncc(-c2ccnc(NC=O)c2)n1` [Example 161]: the IC50 with WM3928 cells is no more than 100 nM; in test [1], no more than 100 nM; in test [2], 500 to 1000 nM; in the test on A375 cells, no more than 100 nM.

Take `Cc1ncc(NC(=O)c2ccnc(C(C)(C)C#N)c2)cc1-c1cccc(-c2ncnc3c2CC(=O)N3)c1` [Example 110]: the IC50 in the test on WM3928 cells lay in the range of 500 to 1000 nM; in test [1], 100 to 500 nM; in test [2], 1000 to 10000 nM; in the test on A375 cells, 1000 to 10000 nM.

Consider `Cc1ccc(NC(=O)c2ccnc(C(F)(F)F)c2)cc1-c1cncc(-c2ccnc(NC=O)c2)n1` [Example 123], for which the IC50 in the test with WM3928 cells was 100 to 500 nM; in test [1] it was no more than 100 nM; in test [2], 1000 to 10000 nM; in the test with A375 cells it was 100 to 500 nM.

As for `Cc1ccc(NC(=O)c2ccnc(C(C)(C)C#N)c2)cc1-c1cncc(-c2ccnc(C(=O)NC3CC3)c2)n1` [Example 148], the IC50 in the test with WM3928 cells lay in the range of 500 to 1000 nM; in test [1] it was 100 to 500 nM; in test [2], 1000 to 10000 nM; in the test on A375 cells, 1000 to 10000 nM.

These data come from patent US12319655B2, “RAF kinase inhibitors and methods of use thereof” (Deciphera Pharmaceuticals, LLC, priority 2021, dated 2025).
